The structures appear in SMILES notation.

The target in one series is T1, HilD dimer (Salmonella typhimurium, UniProt P0CL08).
T1 construct: His6-SUMO (N, cleaved yes); made in house; host or cells: E. coli C41(DE3)
The series is described as follows: BS3 cross-linking of HilD. The settings on record: oleic acid 50 and 100 μM; C26 up to 200 μM. The series is classed as biochemical, S. Typhimurium. The protocol: BS^3 cross-linking of HilD was performed as previously described ([39]). In summary, HilD (10 μM) was first incubated with C26 or oleic acid in SEC buffer for 20 min at r.t., with a final DMSO concentration of 1% (v/v). HilD was then cross-linked by incubation with 0.2 mM BS^3 (Thermo Fisher Scientific, Pierce, A39266) at r.t. for 1 hour, before the reaction was quenched by the addition of 50 mM Tris (pH 7.5). Samples were analyzed using SDS-PAGE and visualized by silver staining.

The subject of series [1] is T3SS-1 (SipA-HiBiT injection into HeLa cells). The series is described as follows: SipA-HiBiT injection assay (split NanoLuc HiBiT/LgBiT). The series is classed as cell-based, S. Typhimurium. How it is done:
SipA injection assay was performed using the split-Nanoluc (HiBiT/LgBiT) system as described previously ([37], [38]). In brief, NanoLuc is split into two parts: LgBiT, comprising 10 of the 11 β strands of the luciferase, and HiBiT, a short peptide with high affinity to LgBiT, contributing the missing β strand to make a functional luciferase. S. Typhimurium strains expressing SipA-HiBiT were grown in LB supplemented with 0.3 M NaCl and either compound at different concentrations or 1% (v/v) DMSO. Cultures were incubated at 37°C with shaking at 180 rpm until an OD600 of 0.9 was reached. Bacteria were then pelleted and washed twice with Hanks’ balanced salt solution (HBSS). The bacterial suspension was diluted to obtain a multiplicity of infection (MOI) of 50 and then used to infect the LgBiT-expressing HeLa cell. Luminescence was measured using a Tecan Sparc Multimode reader.

A further series addresses T2, HilC (Salmonella typhimurium, UniProt E1WAB2).
T2 construct: His6 followed by TEV protease cleavage site (N, cleaved yes); made in house; host or cells: E. coli C41(DE3)
The series is described as follows: nanoDSF thermal stability, HilC. It counts as binding, S. Typhimurium. How it is done: Thermal stability of proteins was determined using nanoDSF, with runs performed on a Prometheus NT.48 (NanoTemper Technologies). A twofold serial dilution series of C26 was prepared in DMSO. C26 was added to HilD or HilC (5 μM) in SEC buffer, giving a final DMSO concentration of 1% (v/v). Samples were incubated for >20 min at r.t. and centrifuged for 2 min prior to loading of standard capillaries (no. PR-C002). Samples were heated from 20° to 80°C with a temperature gradient of 0.5°C min^−1. Melting temperatures were calculated from changes in the fluorescence ratio (350/330 nm), using PR.Stability Analysis v1.0.3 and a temperature range of 40° to 70°C for curve fitting. Data analysis was performed using Prism 8.4 (GraphPad). The change in HilD melting temperature, Tm, was fitted as a function of ligand concentration, using Eqs. 1 and 2 to yield apparent affinity (Kd,app) values Tm{[L]0}=Tm,lower+(Tm,upper−Tm,lower)*(1−α{[L]0}) (1) α{[L]0}=[P]t−Kd−[L]t+{[P]t+[L]t+Kd,app}^2−{4[P]t[L]t}/2[P]t (2) where [P]t and [L]t are the total protein and ligand concentrations, respectively.
Background: Differential scanning fluorimetry follows unfolding on heating by fluorescence.

In series [2] the test system is T3SS-2 (SseF-HiBiT secretion). The series is described as follows: SseF-HiBiT injection assay in LgBiT-expressing RAW 264.7 macrophages. It counts as cell-based, S. Typhimurium. The settings on record: C26 100 μM, inside RAW 264.7 macrophages, 7 hours after infection, MOI 10. The protocol: SseF injection assay was performed using the split-Nanoluc (HiBiT/LgBiT) system as described for SipA. In a white 96-well plate (NUNC) with optical bottom, 10^4 LgBiT-expressing RAW 264.7 macrophages ([65]) were seeded in 100 μl of DMEM, 24 hours before the infection. The strain harboring the plasmid-encoded sseF-HiBiT and the isogenic strain ΔssaV were grown in LB-NaCl at 37°C at 180 rpm until an OD600 of 0.9. Bacteria were washed twice with HBSS (Serva) and then used to infect preseeded cells on a 96-well plate with an MOI of 10. The plate was centrifuged at 300g for 3 min and then incubated for 30 min to allow invasion. Afterward, macrophages were washed with DMEM and incubated for 1 hour in DMEM supplemented with gentamicin (100 μg/ml) to eliminate noninvading bacteria. The medium was replaced by DMEM with gentamicin (16 μg/ml), supplemented with either DMSO (1%) or C26 at different concentrations. Cells were incubated at 37°C with 5% (v/v) CO2 for 5.5 hours (total infection time of 7 hours) and then washed twice with 1x PBS before luminescence measurements were carried out following the manufacturer’s instructions.
(HiBiT is a short tag that completes a luciferase, so light tracks the accessible tagged protein.)

In series [3] the target is T3, HilD mutants (Salmonella typhimurium, UniProt P0CL08, I100A).
T3 construct: His6-SUMO (N, cleaved yes); made in house; host or cells: E. coli C41(DE3)
The series is described as follows: EMSA, binding of HilD mutants to PhilA. It counts as biochemical, S. Typhimurium. The settings on record: 600 nM protein. Background: Mobility shift assays separate free from complexed probe on a gel.
Method: (§1) (F) EMSAs showing the binding of 600 nM HilDWT, HilDL45A, HilDY46A, HilDI100A, and HilDY212A to PhilA, upon incubation with the indicated concentrations of C26.
(§2) EMSAs were performed similarly to as described previously ([39]) using a 62–base pair double-stranded (dsDNA) fragment of the hilA promoter, encompassing the A1 binding site ([82]). dsDNA fragments were generated by melting the complementary primers PhilA_A1_f / PhilA_A1_r (table S10) together in TE buffer [10 mM Tris (pH 8.0) and 1 mM EDTA] at 95°C for 10 min before slowly cooling to r.t. The forward primer was modified with a 5′-Cy5 fluorescent dye for detection. The protein (600 nM) was incubated with 50 nM labeled DNA in EMSA buffer [20 mM Tris (pH 8.0), 100 mM KCl, 100 μM EDTA, and 3% glycerol]. C26 was diluted first in DMSO and subsequently 1:100 into the protein-DNA sample. Samples were incubated at 37°C for 15 min, supplemented with diluted DNA loading dye, and separated on a 1.5-mm-thick, 6% (w/v) TBE polyacrylamide gel at 6°C at a constant voltage of 100 V. Gels were imaged using a ChemiDocMP imaging system (Bio-Rad).

Series [4] deals with HilD mutants. The series is described as follows: EMSA, binding of HilD mutants to PhilA. It counts as biochemical, S. Typhimurium. The note with it: 600 nM protein.
Method: as §1, §2
Another series concerns HeLa cells. The series is described as follows: Cytotoxicity, CellTox Green Cytotoxicity Assay, HeLa. The note with it: exposure time 18 h. The series is classed as cell-based. How it is done: In vitro toxicity of compound C26 was assessed in HeLa cells (ATCC CCL-2) using the ApoTox-Glo Triplex Assay and in macrophages RAW 264.7-LgBiT using the CellTox Green Cytotoxicity Assay (Promega, USA) according to the manufacturer’s instructions. The screening of in vitro toxicity of the compound analogs was performed with the CellTox Green Cytotoxicity Assay (Promega, USA) according to the manufacturer’s instructions. Cells (10^4 cells per well) were seeded into a 96-well plate and incubated for 24 hours at 37°C, 5% (v/v) CO2. Cells were then treated with the compound at different concentrations or 1% (v/v) DMSO in Dulbecco’s modified Eagle’s medium (DMEM) without phenol red at the desired exposure time. Fluorescence intensity was measured with a TECAN Spark microplate reader. Cytotoxicity [relative fluorescence units (RFU)] and viability (RFU) values were plotted to calculate the TC50 using GraphPad Prism 10.1.1.
Compound concentration (µM) […]
in vitro cytotoxicity of C26 and analogs. Cytotoxicity assessed with CellTox™ Green Cytotoxicity Assay with an exposure time of 18 h. N = 3 biological replicates. Data were plotted and TC50 values were generated with GraphPad Prism 10.1.1.
(1 picture or pasted object on this page, not shown here)

The next series concerns the target T4, HilD (Salmonella typhimurium, UniProt E1WAC0).
T4 construct: Strain PhilA-sfGFP and the isogenic ΔhilD PhilA-sfGFP were used for this purpose; endogenous in cells; host or cells: S. Typhimurium SL1344 strain PhilA-sfGFP
The series is described as follows: Whole-cell HilD activity assay (PhilA-sfGFP activation). The series is classed as cell-based, S. Typhimurium. The settings on record: C26 100 μM, strain overexpressing hilD.

T4 sequence (E1WAC0 whole entry): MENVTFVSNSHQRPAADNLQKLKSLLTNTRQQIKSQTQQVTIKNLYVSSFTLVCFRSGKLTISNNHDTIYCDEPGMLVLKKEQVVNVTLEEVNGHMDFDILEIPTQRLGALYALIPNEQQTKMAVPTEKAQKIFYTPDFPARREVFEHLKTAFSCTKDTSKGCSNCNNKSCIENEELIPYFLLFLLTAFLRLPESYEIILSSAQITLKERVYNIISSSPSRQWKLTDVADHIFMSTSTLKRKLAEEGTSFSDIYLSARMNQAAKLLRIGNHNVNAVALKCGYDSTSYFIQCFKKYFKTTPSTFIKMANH
T3 sequence (P0CL08 whole entry I100A): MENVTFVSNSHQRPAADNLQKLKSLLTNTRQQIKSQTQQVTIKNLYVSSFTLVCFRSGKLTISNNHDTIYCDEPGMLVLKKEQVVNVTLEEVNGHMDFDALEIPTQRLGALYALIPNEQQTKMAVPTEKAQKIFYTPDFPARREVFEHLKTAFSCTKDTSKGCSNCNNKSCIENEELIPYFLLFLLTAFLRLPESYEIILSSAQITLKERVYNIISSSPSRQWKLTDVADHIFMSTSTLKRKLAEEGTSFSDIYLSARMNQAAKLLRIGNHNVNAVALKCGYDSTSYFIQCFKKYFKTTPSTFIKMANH
T1 sequence (P0CL08 whole entry): as the sequence (E1WAC0 whole entry) above
T2 sequence (E1WAB2 whole entry): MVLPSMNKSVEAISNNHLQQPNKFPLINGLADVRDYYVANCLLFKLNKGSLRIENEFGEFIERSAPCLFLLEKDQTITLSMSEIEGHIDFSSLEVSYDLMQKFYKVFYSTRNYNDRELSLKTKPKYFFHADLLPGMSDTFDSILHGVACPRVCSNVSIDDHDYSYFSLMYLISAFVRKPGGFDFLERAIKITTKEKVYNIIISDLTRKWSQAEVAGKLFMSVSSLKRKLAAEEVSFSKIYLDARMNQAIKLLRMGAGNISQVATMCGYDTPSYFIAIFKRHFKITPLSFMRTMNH

Consider `CN(CC(=O)NCc1ccc2c(c1)OCO2)Cc1ccc(Br)s1` [C26, N-(benzo[d][1,3]dioxol-5-ylmethyl)-2-{[(5-bromothiophen-2-yl)methyl](methyl)amino}acetamide], for which, at HilD dimer, the “levels of cross-linked HilD dimer” value is given as “did not affect the levels of cross-linking”. Moreover, the “residual SipA injection” value in series [1] (C26 100 μM added to bacterial culture, 1 hour postinfection, MOI 50) is reported as 11%. For the same molecule, the “SipA injection, % of the untreated bacteria” value in series [1] (C26 100 μM only in infection inoculum, 1 hour postinfection, MOI 50) was determined as 48%. For the same molecule, the “SipA injection into HeLa cells over a 5-hour infection time” value in series [1] (C26 added to bacterial culture) is “dose-dependent decrease”. Also, the “thermal stability of HilC” value at HilC is “no effect on the thermal stability”. In series [2], the “SseF-HiBiT secretion, % of the control” value stood at 37%. The “HilDI100A binding to PhilA” value on HilD mutants [3] is on record as “hindered”. In addition, the “DNA binding ability of HilDL45A, HilDY46A, HilDY212A” value with HilD mutants [4] is “did not exert any effect”. In addition, the TC50 cytotoxicity in the series on HeLa cells is > 100 µM. In addition, the “decrease of PhilA activation” value on HilD (WT background) came out at 14%; on HilD (ΔhilD ΔhilC ΔrtsA background), 18%.

(Values after PMC11988454, “Discovery of synthetic small molecules targeting the central regulator of Salmonella pathogenicity” (Science Advances, 2025).)
